Laboratory results reported in patent US20230278972A1, “SUBSTITUTED HALOALKYL SULFONANILIDE HERBICIDES” (FMC Corporation, priority 2020, published 2023).

Key:
Assay type in all cases: in vivo
[1] = tested on: barnyardgrass (Echinochloa crus-galli); experiment: Test A preemergence, barnyardgrass; conditions: Preemergence; for Plant response rating, Barnyardgrass: 31 g ai/ha, visual injury, 0 to 100 scale (0 no effect, 100 complete control), approx. 10 days; for Barnyardgrass plant response rating: 125 g ai/ha, visual injury on 0 to 100 scale (0 no effect, 100 complete control), approximately 10 days
Method in brief: (§1)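 Seeds are sown in loam mixed with sand and sprayed on the soil surface right after planting for the preemergence test. Postemergence pots are sprayed once seedlings reach 2 to 10 cm at the one- to two-leaf stage. The same surfactant-containing, non-phytotoxic solvent formulation serves both.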

kochia (Bassia scoparia) [2] = experiment: Test A preemergence, kochia; conditions: Preemergence; for Plant response rating, Kochia: 31 g ai/ha, visual injury, 0 to 100 scale (0 no effect, 100 complete control), approx. 10 days; for Kochia plant response rating: 125 g ai/ha, visual injury on 0 to 100 scale (0 no effect, 100 complete control), approximately 10 days
Method in brief: as §1

[3] = tested on: ragweed (common ragweed, Ambrosia artemisiifolia); experiment: Test A preemergence, ragweed; conditions: Preemergence; for Plant response rating, Ragweed: 31 g ai/ha, visual injury, 0 to 100 scale (0 no effect, 100 complete control), approx. 10 days; for Ragweed plant response rating: 125 g ai/ha, visual injury on 0 to 100 scale (0 no effect, 100 complete control), approximately 10 days
Method in brief: as §1

[4] = tested on: Ryegrass, Italian (Italian ryegrass, Lolium multiflorum); experiment: Test A preemergence, Ryegrass, Italian; conditions: Preemergence; for Plant response rating, Ryegrass, Italian: 31 g ai/ha, visual injury, 0 to 100 scale (0 no effect, 100 complete control), approx. 10 days; for Ryegrass, Italian plant response rating: 125 g ai/ha, visual injury on 0 to 100 scale (0 no effect, 100 complete control), approximately 10 days
Method in brief: as §1

[5] = tested on: Foxtail, Giant (giant foxtail, Setaria faberi); experiment: Test A preemergence, Foxtail, Giant; conditions: Preemergence; for Plant response rating, Foxtail, Giant: 31 g ai/ha, visual injury, 0 to 100 scale (0 no effect, 100 complete control), approx. 10 days; for Foxtail, Giant plant response rating: 125 g ai/ha, visual injury on 0 to 100 scale (0 no effect, 100 complete control), approximately 10 days
Method in brief: as §1

[6] = tested on: pigweed (Amaranthus retroflexus); experiment: Test A preemergence, pigweed; conditions: for Plant response rating, Pigweed: 31 g ai/ha, visual injury, 0 to 100 scale (0 no effect, 100 complete control), approx. 10 days; for Pigweed plant response rating: 125 g ai/ha, visual injury on 0 to 100 scale (0 no effect, 100 complete control), approximately 10 days
Method in brief: (§2)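 Test chemicals, formulated in a non-phytotoxic solvent mixture with surfactant, were sprayed postemergence on plants 2 to 10 cm tall at the one- to two-leaf stage. Preemergence treatment was a directed soil spray onto freshly seeded pots. Both used a loam soil and sand blend.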

[7] = tested on: barnyardgrass (Echinochloa crus-galli); experiment: Test A postemergence, barnyardgrass; conditions: Postemergence
Method in brief: as §2

kochia (Bassia scoparia) [8] = experiment: Test A postemergence, kochia; conditions: Postemergence
Method in brief: as §1

[9] = tested on: ragweed (common ragweed, Ambrosia artemisiifolia); experiment: Test A postemergence, ragweed; conditions: Postemergence
Method in brief: as §1

[10] = tested on: Ryegrass, Italian (Italian ryegrass, Lolium multiflorum); experiment: Test A postemergence, Ryegrass, Italian; conditions: Postemergence
Method in brief: as §1

[11] = tested on: Foxtail, Giant (giant foxtail, Setaria faberi); experiment: Test A postemergence, Foxtail, Giant; conditions: Postemergence
Method in brief: as §1

[12] = tested on: pigweed (Amaranthus retroflexus); experiment: Test A postemergence, pigweed; conditions: Postemergence
Method in brief: as §1

[13] = tested on: wheat (Triticum aestivum); experiment: Test A postemergence, wheat; conditions: Postemergence
Method in brief: as §2

corn (Zea mays) = experiment: Test A postemergence, corn; conditions: Postemergence
Method in brief: as §1

[14] = tested on: blackgrass (Alopecurus myosuroides); experiment: Test A postemergence, blackgrass; conditions: Postemergence
Method in brief: as §1

[15] = tested on: galium (catchweed bedstraw, Galium aparine); experiment: Test A postemergence, galium; conditions: Postemergence
Method in brief: as §2

[16] = 31 g ai/ha, 0 to 100 scale (0 no effect, 100 complete control)
[17] = 125 g ai/ha, 0 to 100 scale (0 no effect, 100 complete control)
[18] = 31 g ai/ha, visual injury on 0 to 100 scale (0 no effect, 100 complete control), approx. 10 days

| SMILES | Plant response rating, Barnyardgrass [1] | Barnyardgrass plant response rating [1] | Plant response rating, Kochia (kochia (Bassia scoparia) [2]) | Kochia plant response rating (kochia (Bassia scoparia) [2]) | Plant response rating, Ragweed [3] | Ragweed plant response rating [3] | Plant response rating, Ryegrass, Italian [4] | Ryegrass, Italian plant response rating [4] | Plant response rating, Foxtail, Giant [5] | Foxtail, Giant plant response rating [5] | Plant response rating, Pigweed [6] | Pigweed plant response rating [6] | Plant response rating, Barnyardgrass [7, 17] | Plant response rating, Kochia (kochia (Bassia scoparia) [8]; [18]) | Plant response rating, Kochia (kochia (Bassia scoparia) [8]; [17]) | Plant response rating, Ragweed [9, 18] | Plant response rating, Ragweed [9, 17] | Plant response rating, Ryegrass, Italian [10, 18] | Plant response rating, Ryegrass, Italian [10, 17] | Plant response rating, Foxtail, Giant [11, 18] | further results |
| --- | --- | --- | --- | --- | --- | --- | --- | --- | --- | --- | --- | --- | --- | --- | --- | --- | --- | --- | --- | --- | --- |
| Cc1cc(C)c(N(COC(=O)C2CCCC2)S(=O)(=O)C(F)(F)F)cc1C1=NOC2(CCCC2)C1 [Compound 150] | 0 | 90 | 0 | 0 | 0 | 0 | 40 | 90 | 20 | 100 | 40 | 100 | 50 | 10 | 10 | 0 | 0 | 0 | 0 | 0 | Plant response rating, Barnyardgrass [7, 16]: 0; Plant response rating, Foxtail, Giant [11, 17]: 20; Plant response rating, Pigweed [12, 18]: 20; Plant response rating, Pigweed [12, 17]: 40; Plant response rating, Wheat [13, 18]: 0; Plant response rating, Wheat [13, 17]: 60; Plant response rating, Corn (corn (Zea mays); [18]): 0; Plant response rating, Corn (corn (Zea mays); [17]): 0; Plant response rating, Blackgrass [14, 16]: 0; Plant response rating, Blackgrass [14, 17]: 0; Plant response rating, Galium [15, 18]: 40; Plant response rating, Galium [15, 17]: 60 |
| CCC(C)C(=O)OCN(c1cc(C2=NOC3(CCCC3)C2)c(C)cc1C)S(=O)(=O)C(F)(F)F (stereo not drawn) [Compound 151] | 0 | 90 | 0 | 0 | 0 | 30 | 30 | 90 | 60 | 100 | 50 | 90 | 30 | 10 | 10 | 0 | 40 | 0 | 0 | 0 | Plant response rating, Barnyardgrass [7, 16]: 0; Plant response rating, Foxtail, Giant [11, 17]: 30; Plant response rating, Pigweed [12, 18]: 30; Plant response rating, Pigweed [12, 17]: 30; Plant response rating, Wheat [13, 18]: 0; Plant response rating, Wheat [13, 17]: 50; Plant response rating, Corn (corn (Zea mays); [18]): 0; Plant response rating, Corn (corn (Zea mays); [17]): 10; Plant response rating, Blackgrass [14, 16]: 0; Plant response rating, Blackgrass [14, 17]: 0; Plant response rating, Galium [15, 18]: 60; Plant response rating, Galium [15, 17]: 70 |
| Cc1cc(C)c(N(COC(=O)CC(C)C)S(=O)(=O)C(F)(F)F)cc1C1=NOC2(CCCC2)C1 [Compound 152] | 0 | 70 | 0 | 0 | 0 | 30 | 0 | 40 | 40 | 80 | 30 | 100 | 10 | 10 | 10 | 0 | 40 | 0 | 0 | 10 | Plant response rating, Barnyardgrass [7, 18]: 0; Plant response rating, Foxtail, Giant [11, 17]: 10; Plant response rating, Pigweed [12, 18]: 30; Plant response rating, Pigweed [12, 17]: 60; Plant response rating, Wheat [13, 18]: 40; Plant response rating, Wheat [13, 17]: 30; Plant response rating, Corn (corn (Zea mays); [18]): 10; Plant response rating, Corn (corn (Zea mays); [17]): 0; Plant response rating, Blackgrass [14, 18]: 0; Plant response rating, Blackgrass [14, 17]: 0; Plant response rating, Galium [15, 18]: 20; Plant response rating, Galium [15, 17]: 60 |
